Entries after “also recorded” stand apart in the source; their conditions may differ.
Legend:
[1] = tested on: transcriptional activity of ERE-ERα; assay: ERE-luciferase reporter assay in KPL-3C cells; assay type: cell-based, human; conditions: 10 nM E2 24 hours
Method: KPL-3C cells temporarily transfected with an ERE-luciferase reporter vector were treated with the ERAP1-peptide in the concentrations shown in the figure. Then, immediately, the cells were stimulated with 10 nM E2 for 24 hours. TAM indicates the tamoxifen treatment. […] KPL-3C cells were treated for 24 hours with the ERAP1-peptide and/or E2. Then, the nuclear fraction was immunoprecipitated with anti-ERα antibody or an anti-PHB2 antibody.

MCF-7 cells = assay: Cell cycle FACS analysis, MCF-7; assay type: cell-based, human; conditions: 10 μM ERAP1-peptide and/or 10 nM tamoxifen, 10 nM E2 24 hours
Method: FIG. 6-2 is a diagram illustrating that ERAP1-peptide treatment suppresses ERα-dependent cell proliferation of breast cancer cell lines. […] MCF-7 cells were treated with 10 μM ERAP1-peptide or 10 μM tamoxifen. Then, immediately, the cells were stimulated with 10 nM E2 for 24 hours. After the immobilization, the cells were stained with propidium iodide, and analyzed by flow cytometry.
FIG. 19 is a diagram illustrating the results of FACS analysis showing the effects of concomitant use of the ERAP1-peptide and tamoxifen on the cell cycle.
The cells were fixed with cold 70% ethanol, and stained with 20 μg/ml propidium iodide (Sigma) and 1 mg/ml ribonuclease A (Sigma), and analyzed with FACSCalibur (B D, Franklin Lakes, N.J., USA). The cell cycle was evaluated using CellQuest software (BD).
MCF-7 cells were treated with 10 μM ERAP1-peptide and/or 10 nM tamoxifen. Then, immediately, the cells were stimulated with 10 nM E2 for 24 hours. After the immobilization, the cells were stained with propidium iodide, and analyzed by flow cytometry.

[2] = tested on: pS2, cyclin D1, c-Myc, SP-1, E2F1, PgR; assay: Quantitative RT-PCR of ERα target genes, KPL-3C; assay type: cell-based, human; conditions: 24 hours
[3] = tested on: ERα interaction with IGF-1Rβ, Shc; AKT and MAPK; assay: Non-genomic activation route, immunoblotting, KPL-3C; assay type: cell-based, human
Method: FIG. 9-1 is a diagram illustrating that ERAP1-peptide treatment suppresses the non-genomic activation route. […] The cell lysate of the ERα-positive breast cancer cell lines shown in the figure was subjected to immunoblotting analysis using the antibodies shown in the figure. […] KPL-3C cells were treated with the ERAP1-peptide and/or E2 for 24 hours. Then the nuclear fraction was immunoprecipitated with anti-ERα antibody.
FIG. 9-2 is a diagram illustrating that ERAP1-peptide treatment suppresses the non-genomic activation route. […] The cells (C and D) or BT474 cells (E) Were treated with the ERAP1-peptide. Then, the phosphorylation levels of Akt (C). MAPK (C) and ERα (D and E) were evaluated with Western blotting. The relative phosphorylation levels were quantified by densitometry analysis, and the ratio to the value at 0 hour for non-treated cells was calculated.

HCC1395 cells = assay: Proliferation of ERα-positive/ERAP1-negative HCC1395 cells; assay type: cell-based, human; conditions: 10 nM E2 96 hours
Method: FIG. 21 is a diagram illustrating that […] was translocated into the nucleus by E2 stimulation in ERAP1-negative breast cancer cell lines, HCC1395 cells. […] Then, immediately, the cells were stimulated with 1 μM E2 for 24 hours. The cells were fractionated into cytoplasm and nuclear fractions by specific gravity centrifugation. Then, each fraction was subjected to immunoblotting analysis using an anti-PHB2 antibody. Lamin and Tubulin are markers for […]. […] HCC1395 cells were treated with 5 μM ERAP1-peptide. Then, immediately, the cells were stimulated with 1 μM E2 for 24 hours. Then, the nuclear fraction was immunoprecipitated with anti-ERα antibody. Furthermore, with respect to the obtained sample, the immunoprecipitate was subjected to immunoblotting analysis with the antibodies shown in the figure. […] Then, immediately the cells were stimulated with 10 nM E2 for 96 hours.
The proliferation assay of HCC1395 cells was evaluated using Cell-Counting Kit-8 (CCK-8, Dojindo, Kumamoto, Japan). First, HCC1395 cells were seeded in 2×10^4/well in RPMI culture medium containing 10% FBS and 1% antibiotic/antimycotic solution and not containing phenol red on a 48-well plate, and stood in a CO2 incubator. […] Then, 100 μl from each well was moved to a 96-well plate, and the absorbance at 450 nm was measured with a microplate reader.

Tam-R MCF-7 tumor = assay: In vivo antitumor effect, Tam-R MCF-7 orthotopic transplant; design: species or system BALB/c nude mouse; conditions: intraperitoneal every day, E2 6 μg/day, day 21
Source text: FIG. 27 is a diagram illustrating the inhibition effect of the ERAP1-peptide on tumor proliferation in a mouse orthotopically transplanted with human breast cancer. […] KPL-3 cells were subcutaneously transplanted into the breast fat body of a BALB/c nude mouse. The treatment test (5 individuals/group) was initiated (day 0) when the volume of the tumor reached about 50-80 mm^3 in the absence of E2. To a cancerous mouse orthotopically transplanted with KPL-3C tumor, the ERAP1-peptide (Peptide: 14 mg/kg) or the ERAP1-scramble peptide (scrPeptide: 14 mg/kg) was administered every day by intraperitoneal injection. At the same time, E2 (6 μg/day) was administered subcutaneously every day. On day 14, the mouse was euthanatized, and the tumor was removed, and phosphorylation of PHB2/REA (S39) in each tumor was evaluated with immunoblotting analysis. […] The tamoxifen-resistant MCF7-cells (Tam-R MCF-7) were subcutaneously transplanted into the breast fat body of a BALB/c nude mouse, and the treatment test (5 individuals/group) was initiated (day 0) when the volume of the tumor reached about 50-80 mm^3 in the presence of tamoxifen (37 ng/day, 1.85 μg/kg). To a cancerous mouse orthotopically transplanted with Tam-R MCF-7 tumor, the ERAP1-peptide (Peptide: 3.5, 7 and 14 mg/kg) or the ERAP1-scramble peptide (scrPeptide: 14 mg/kg) was administered every day by intraperitoneal injection. […]

Q: What does the source list for `CSCC[C@H](NC(=O)[C@H](CCC(N)=O)NC(=O)[C@H](CCCNC(=N)N)NC(=O)[C@H](CCCNC(=N)N)NC(=O)[C@H](CCCNC(=N)N)NC(=O)[C@H](CCCNC(=N)N)NC(=O)[C@H](CCCNC(=N)N)NC(=O)[C@H](CCCNC(=N)N)NC(=O)[C@H](CCCNC(=N)N)NC(=O)[C@H](CCCNC(=N)N)NC(=O)[C@H](CCCNC(=N)N)NC(=O)[C@H](CCCNC(=N)N)NC(=O)[C@@H](N)CCCNC(=N)N)C(=O)N[C@@H](CC(C)C)C(=O)N[C@@H](CO)C(=O)N[C@@H](CC(=O)O)C(=O)N[C@@H](CC(C)C)C(=O)N[C@H](C(=O)N[C@@H](CC(C)C)C(=O)N[C@@H](CCC(N)=O)C(=O)N[C@@H](CC(C)C)C(=O)N[C@@H](CCCNC(=N)N)C(=O)N[C@@H](CCC(N)=O)C(=O)N[C@@H](CCCNC(=N)N)C(=O)O)[C@@H](C)O` [ERAP1-peptide]?
A: transcriptional activity of ERE-ERα [1]: suppression for the transcriptional activity of ERE-ERα was recognized; cell cycle (MCF-7 cells): induced stop of the G1 phase; also recorded: increase of cells having stopped in the G1 phase; expression of ERα target genes [2]: remarkable suppression for expression of all of these genes; activations of AKT and MAPK [3]: activations of AKT and MAPK were suppressed; binding of ERα and Shc and of ERα and IGF-1Rβ [3]: the binding of ERα and Shc and the binding of ERα and IGF-1Rβ were inhibited; cell proliferation (HCC1395 cells): not recognized; antitumor effect (tumor volume) (Tam-R MCF-7 tumor): The antitumor effect was recognized

Source: US9725490B2, “ERAP1-derived peptide and use thereof” (TOKUSHIMA UNIVERSITY, priority 2011, dated 2017)
